Results on 1 compound are retold here after patent publication US8541476B2, “Compounds for treatment of malignant tumors” (The Trustees of the University of Pennsylvania, priority 2007, dated 2013).

“Also recorded” adds a separate entry of the source.

For one data set, the system named is U251 glioma cells. Description: Clonogenic survival assay, U251 cells. It is filed as cell-based, human. How it is done: (§1) Clonogenic survival assays were performed as described by Koumenis, et al., 2002, (Mol. Cell Biol. 22:7405-16), which reference is incorporated herein in its entirety. U251, HT-29, or A549 cells were plated at different densities in triplicate, treated with NS-123 or DMSO (alone) and irradiated 4, 8, or 12 hours later with a range of doses using ^137Cs γ-rays at a dose rate of ˜4 Gy/minute (min). One hour after irradiation, the medium was replaced with fresh medium without NS-123 or DMSO. The cells were fixed 7-14 days after IR and stained with crystal violet. Colonies greater than 50 cells were then counted and normalized against the non-irradiated controls for each treatment. […] NHA cells were plated in 24-well plates in quadruplicate at equal density, treated with equal volumes of NS-123 or DMSO (alone) and irradiated as described above. One hour after irradiation, the medium was replaced with fresh ABM. Five days later, the MTS assay was used to evaluate cell survival as above.
The effects of μM doses of NS-123 on clonogenic survival of U251 cells were first determined without ionizing radiation (IR). […] Treatment with a 5 μM dose for 12 hours caused a modest (30%), but statistically significant decrease in survival.
Next, the dose-dependent radiosensitizing effects of NS-123 (2.5 μM and 5.0 μM concentration) in U251 cells was determined (FIG. 4A). […] Therefore, NS-123 can act as a true radiosensitizer at low μM concentrations. Corresponding Dose Enhancement Ratios (DER) at 0.1 survival were: 1.3 (2.5 μM NS-123) and 2.0 (5.0 μM NS-123). The time-dependent radiosensitizing effects of 5.0 μM NS-123 in U251 cells was then investigated. […] Corresponding DER at 0.1 survival were: 1.2 (4 hour preincubation with NS-123), 1.4 (8 hour) and 1.9 (12 hour).

The next data set relates to U251 glioma cell line. Put plainly: Chemical library radiosensitizer screen (MTS assay, paired plates 4 Gy / unirradiated). It is filed as cell-based, human. To be noted: U251, 8 hours at 2.5 μM, MTS four days later. How it is done:
Six hundred U251 cells were plated per well in 96 well plates. Cells in each well were then treated with a different compound from the Nanosyn library for 8 hours at 2.5 μM concentration. Treatment was performed with paired 96-well plates; one plate was exposed to 4 Gy and the other plate was an unirradiated control. One hour after irradiation, the medium was replaced with fresh medium alone. Four days later, the MTS assay was used to evaluate cell survival. Absorbance was measured at 490 nm with a microplate reader (Sprectramax, Molecular Devices, Sunnyvale, Calif.). Radiosensitivity factors (RSF) were calculated according to the following formula for each compound tested with the assay:
[formula] Survival Assays
The small chemical compound chemical library (Nanosyn, Inc.) was replicated in a 96-well format and compounds were dissolved in DMSO at a concentration of […]. Using the U251 glioma cell line, the radiosensitizing capability of 870 compounds was initially assayed within the library. The assay was optimized in terms of the number of cells, radiation dose used, and the number of days incubated so that a decrease in survival could be assessed. […] The structure of three novel radiosensitizing compounds is depicted in FIG. 1B.

Data set [1] deals with Nontransformed human astrocytes (NHA). Put plainly: Modified MTS survival assay on normal human astrocytes after IR. The class given is cell-based. The note with it: 5 μM, 8 hours or 12 hours pretreatment, versus DMSO. The method, then:
as §1
The objective of any combination of therapeutic agents is to achieve an improved therapeutic result, which is a function both of tumor response and of normal tissue damage. No improvement in the therapeutic result of IR is gained utilizing a drug that increases the sensitivity of both tumor and normal cells to the same extent. […]
For orientation: Formazan colour is commonly taken as a measure of viable cells.

Data set [2] has as its system γ-H2AX, P-CHK2, P-ATM, P-DNA-PKcs in U251 cells. Put plainly: Immunoblotting of dsDNA damage-dependent signaling after IR. It is filed as cell-based, human. The note with it: U251, 30 μM 4 hours prior to IR, 6 hours after IR. The method, then: Following treatments, whole cell and nuclear extracts were prepared. Equal lysate volumes were loaded on 15% and 12% SDS-PAGE gels to assay for γ-H2AX and P-CHK2 proteins, respectively. To assay for P-ATM and P-DNA-PKcs protein, 30-50 μg of nuclear protein were diluted with an equal volume of 2×SDS and resolved with 6% SDS-PAGE gels. Proteins were transferred to polyvinylidene difluoride (PVDF) membranes and then incubated with either anti-γ-H2AX antibody (1:5000; Upstate, Charlottesville, Va.), anti-P-CHK2 antibody (1:1000; Cell Signaling, Beverly, Mass.), anti-phospho-ATM (pSer^1981) antibody (1:300 Calbiomchem, San Diego, Calif.), or anti-phospho-DNA-PKcs (T2609) antibody (1:500; Abcam, Cambridge, Mass.). To confirm equivalent loading and protein transfer, membranes were probed with mouse anti-human β-actin monoclonal antibody (Sigma) or anti-DNA-PKcs monoclonal antibody (25-4 at 1:5000; NeoMarkers, Fremont, Calif.). All membranes were then incubated with horseradish peroxidase-conjugated anti-mouse or anti-rabbit secondary antibodies (Santa Cruz Biotechnology). Immunoreactive bands were detected using ECL Plus chemiluminescence (Amersham Biosciences).
The levels of γ-H2AX, P-CHK2, P-ATM, and P-DNA-PKcs were assayed in U251 cells by immunoblotting at various time points after IR. Cells were treated with DMSO (control) or 30 μM NS-123 for 4 hours prior to IR. […]
(In western blotting, separated proteins are transferred to a membrane and probed.)

Turning to `CCC(=O)c1ccc(Br)c([N+](=O)[O-])c1` [NS-123, 4′-bromo-3′-nitropropiophenone], the “clonogenic survival without IR” value in the data set with U251 glioma cells (U251, 2.5 μM for 12 hours, no IR) is listed as “did not cause any significant decrease in survival”. Besides, the “Dose Enhancement Ratio (DER) at 0.1 survival” value in the data set on U251 glioma cells (U251, 2.5 μM, 12 hours before IR) is listed as 1.3; with U251 glioma cells (U251, 5.0 μM, 4 hour preincubation) it was 1.2; with U251 glioma cells (U251, 5.0 μM, 8 hour preincubation), 1.4; with U251 glioma cells (U251, 5.0 μM, 12 hour preincubation (time-response, FIG. 4B)), 1.9; with U251 glioma cells (U251, 5.0 μM, 12 hours before IR (dose-response, FIG. 4A)), 2.0. In addition, the radiosensitization result in the data set with U251 glioma cells (U251, 2.5 μM, IR dose of 2 Gy) is reported as “Radiosensitization was evident”. In addition, the “decrease in clonogenic survival without IR” value in the data set on U251 glioma cells (U251, 5 μM for 12 hours, no IR) was 30%. Further, the “loss of viability without IR, time-response” value in the data set on U251 glioma cells (U251, 5 μM, various times, no IR) is “did not induce any significant loss of viability unless it was administered for 12 hours”. Further, the “radiosensitization, high-density plated cells” value with U251 glioma cells (U251 plated at high density, 30 μM 4 hour versus 5 μM 12 hour on low-density cells (data not shown)) is given as “comparable radiosensitization”. For the same compound, the “average Radiosensitivity factor (RSF)” value with U251 glioma cell line was 4.62. Besides, the “radiosensitization of normal human glial cells” value in data set [1] was “no significant increase in radiosensitization; also recorded: does not radiosensitize”. In addition, the “levels of γ-H2AX, P-CHK2, P-DNA-PKcs and P-ATM” value in data set [2] is given as “substantially higher levels”.
